Structures can show the parent of a compound that is named as a salt. Where two headings read alike, the source gives them in different places.
Assays:
larvae = assay: larvicidal activity assay; format: in vivo; settings: for pest or weed control at 0.25 %: read-out: % Lethality with 0.25% compound conc.; for pest or weed control at 100 ppm: read-out: % Lethality at 100 ppm
Protocol: A 6-well plate (Corning Life Sciences, Tewksbury, Mass.) is used to test a compound's larvicidal activity. […] After a 24 hour exposure, the number of dead larvae are counted and recorded.
The results are presented in Table 17 as % lethality (the number of dead larvae divided by the total number of larvae).

[1] = test system: bed bugs (Cimex lectularius); assay: bed bug repellency assay; format: in vivo; settings: compound or combination on filter paper harborage, ten bed bugs
Method in brief: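 Ten Cimex lectularius per talc-lined petri dish chose between folded filter-paper harborages treated with isopropyl alcohol alone or compound in isopropyl alcohol […], dried before use. Bugs moved freely 5 min; occupancy beneath each tent recorded, with a solvent-only pairing as control.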

bed bugs = assay: bed bug luring assay; format: in vivo; settings: cottonball with 100 microliters solution, total 100 mg compound(s), 10 bed bugs, overnight
Protocol: Assays were conducted to measure the ability of compounds and compound combinations to attract bed bugs. A testing arena habitat comprising a small plastic container was placed inside of a larger, secondary container. The top half inch was removed from two bathroom sized solo cups and each cup was placed on opposite sides of the testing arena habitat, one inch away from the wall. Each outer part of the cup was textured using sandpaper, as bed bugs cannot climb smooth surfaces. A paper towel was used to line the floor of the testing arena habitat. The top, removed portion of one of the solo cups was placed mouth side down in the center of the arena. In one of the cups, a cottonball was placed and treated with 100 microliters of compound or compound combination solution [comprising a total of 100 mg of compound(s).] 10 bed bugs were placed within the center cut off cup top and the testing arena habitat was covered and placed within a dark, climate controlled room overnight. The next day, the number of bed bugs that crawled into the baited cup were recorded and the % attractancy was calculated as the percentage of bugs that crawled into the baited cup as compared to the total number of bed bugs. In the Table, “Att” refers to attractancy and “Cmpd” refers to compound.

female mosquitoes [2] = assay: whole plant or invertebrate; settings: 2 h; for mortality at 200 µg/mL: read-out: % mortality with 0.2 mg/ml; for mortality at 2000 µg/mL: read-out: % mortality with 2 mg/ml
cpA neurons [3] = assay: extracellular single-sensillum electrophysiology: activation of cpA neuronal activity; settings: for Class: Table 6, single compounds, increase over baseline cpA neuronal activity; for Comp B Class: component B tested individually; for Class B (activator class of the individual component): Table 15, single component alone, Mod Actv
cpB and cpC neurons = assay: extracellular single-sensillum electrophysiology: beta activators; format: in vivo, Aedes aegypti; settings: for Class A (beta activator, individual component): Table 15, single component alone; for beta activator (stimulates cpB and cpC neuronal activity): single compound
Text: Three types of CO2-responsive neurons reside in the maxillary palp of mosquitoes. These include cpA, cpB and cpC neurons. […] These neurons produce spikes with much lower amplitude than those produced by cpA neurons. Although the activity from cpB and cpC neurons cannot easily be distinguished from one another, their collective activity can be distinguished from cpA neurons due to their characteristic spikes. This is useful in the identification of compounds and compositions that only activate or inhibit cpB and cpC neurons or compounds and compositions that activate or inhibit both.
Carbon dioxide receptor neurons are housed within the basiconic sensilla of the mosquito maxillary palp. While activity from cpA neurons produces the largest amplitude spike, cpB and cpC neurons present in this region are also responsive to skin odors. Activity from these neurons can also be detected through the electrophysiological methods described in Example 1.
Although the activity from cpB and cpC neurons cannot easily be distinguished from one another, their collective activity can be distinguished from cpA neurons due to their production of spikes with much lower amplitude than those produced by cpA neurons.

female mosquitoes [4] = settings: in vivo
cpA neurons [5] = assay: extracellular single-sensillum electrophysiology: inhibition of CO2-responsive (cpA) neuronal activity; settings: for Class: Table 10, single compounds, percent reduction in cpA activity compared to baseline; for Class (inhibitor class of the individual component): Inh = inhibitor
Aedes aegypti = assay: landing assay; format: in vivo; settings: mesh treated with 1% in acetone, FIG. 2
Text: Behavior assays were developed to aid in the evaluation of compounds and compositions of the present invention. These assays include the landing assay and the netsphere assay. These assays were utilized to determine the effectiveness of said compounds and compositions with regard to attracting or repelling mosquitoes of the species Aedes aegypti. Due to the highly conserved nature of the carbon dioxide receptor across the order Diptera, the results obtained for Aedes aegypti are likely to be intuitive with regard to other members of the mosquito family Culicidae as well as with regard to other dipteran family members.
The landing assay is an assay used to test for attraction toward human skin. A human gloved hand with an opening cutout protected by 2 layers of mesh was inserted into a 12×12×12 inch cage of female mosquitoes. The first layer of mesh was used to protect the human from chemical contact as well as mosquito contact. A second layer of mesh was treated with a chemical compound or composition that had been dissolved at a concentration of 1% in acetone and allowed to dry on said mesh for three minutes. This second layer of mesh was placed on top of the first mesh layer. The two mesh layers were separated by outer magnetic strips to hold the layers in place on the glove. This experimental design allows the test subjects, starved female mosquitoes, to be exposed to human skin odors as well as the compound or composition concurrently. The cage contained 30 female and 3 male mosquitoes. The landing of mosquitoes on the treated surface was videotaped over a 5 minute time course and the number of landings during that time period was recorded. Mesh treated with acetone alone was used as a negative control. This experiment was done in triplicate for each compound or composition tested. The results from one such experiment are pictured in FIG. 2.

[6] = 0.25% compound, 24 hour exposure, dead larvae / total larvae
[7] = 100 ppm compound, 24 hour exposure, dead larvae / total larvae

| SMILES | pest or weed control at 0.25 % (larvae; [6]) [%] | pest or weed control at 100 ppm (larvae; [7]) [%] | % Rep (bed bug repellency) [1] [%] | % Att (bed bug attractancy) (bed bugs) [%] | mortality at 200 µg/mL (female mosquitoes [2]) [%] | mortality at 2000 µg/mL (female mosquitoes [2]) [%] | Class (cpA neurons [3]) | beta activator (stimulates cpB and cpC neuronal activity) (cpB and cpC neurons) | further results |
| --- | --- | --- | --- | --- | --- | --- | --- | --- | --- |
| C/C=C/C(=O)OC [OLI0026, methyl crotonate] | 87.5 | 0 | 38 | 20 | 0 | 0 | Moderate Activator (Moderate activators yield an increase in neuronal activity that is between 40 and 60 spk/sec over baseline neuronal activity) |  | Comp B Class (cpA neurons [3]; Table 9): Mod; Class B (activator class of the individual component) (cpA neurons [3]): Mod |
| COC(=O)CCC(C)=O [OLI0027, methyl levulinate] | 50 | 0 | 20 | 10 | 0 | 0 | Moderate Activator (Moderate activators yield an increase in neuronal activity that is between 40 and 60 spk/sec over baseline neuronal activity) | beta activators | Class A (beta activator, individual component) (cpB and cpC neurons; Beta Actv): Beta; Comp A Class (cpA neurons [3]; Table 9, component A tested individually): Mod; activator class of single compound (cpA neurons [3]): moderate cpA activator |
| CSC(C)=O [OLI0025, methanethiol acetate] |  |  |  | 20 |  |  | Moderate Activator (Moderate activators yield an increase in neuronal activity that is between 40 and 60 spk/sec over baseline neuronal activity) |  | % Lethality with 0.25% compound conc. (larvae; [6]): 100% lethal; % Lethality at 100 ppm (larvae; [7]): 0% lethal; % mortality with 0.2 mg/ml (female mosquitoes [4]): 0%; % mortality with 2 mg/ml (female mosquitoes [4]): 0%; Comp B Class (cpA neurons [3]; Table 9): Mod; Class B (activator class of the individual component) (cpA neurons [3]): Mod |
| C/C=C(\C)C(=O)OC(CC)CCCCC (stereo not shown) [OLI0079, 1-ethylhexyl tiglate] | 100 | 0 | 49 |  | 0 | 15 |  | beta activators | Class (cpA neurons [5]): Mild Inhibitor (mild inhibitors (reducing activity by 20-40%)); inhibitor class of single compound (cpA neurons [5]; single compound): mild cpA inhibitors |
| CCc1cnccn1 [OLI0002, 2-ethylpyrazine] | 50 | 0 | 49 |  | 0 | 0 | Strong Activator (strong activators yield an increase in activity that is >60 spk/sec over baseline neuronal activity) |  | number of landings (Aedes aegypti; 5 minute time course): 12 landings; behaviour in landing assay (lure or repellent) (Aedes aegypti): repellent; activator class of single compound (cpA neurons [3]): activator |
| COc1cnccn1 [OLI0003, 2-methoxypyrazine] | 100 | 0 | 22 | 30 | 0 | 0 | Strong Activator (strong activators yield an increase in activity that is >60 spk/sec over baseline neuronal activity) |  |  |
| CCC(=O)OCCC(C)C [OLI0099, isoamyl propionate] | 0 | 0 | 17 | 10 | 0 | 0 |  | beta activators | Class A (beta activator, individual component) (cpB and cpC neurons; Beta Actv): Beta |
| CCCCCCOC=O [OLI0097, hexyl formate] |  |  | 44 | 30 | 0 | 0 |  | beta activators | Class A (beta activator, individual component) (cpB and cpC neurons; Beta Actv): Beta; pest or weed control at 100 ppm (larvae; 24 h): 0%; pest or weed control at 0.25 % (larvae; 24 h): 5% |
| CC/C=C\CCCCO [OLI0084, cis-5-octen-1-ol] | 100 | 0 | 82 |  | 0 | 95 |  | beta activator | Class (beta activator, individual component) (cpB and cpC neurons; Table 16, single component alone, Beta Actv): Beta; Class (cpA neurons [5]): Mild Inhibitor (mild inhibitors (reducing activity by 20-40%)); Class (inhibitor class of the individual component) (cpA neurons [5]; Table 13, single component alone): Mild; Class (inhibitor class of the individual component) (cpA neurons [5]; Table 16, single component alone): Mild |
| COc1nccnc1C [OLI0070, 2-methoxy-3-methylpyrazine] | 100 | 0 |  | 10 | 0 | 0 |  |  | Class (cpA neurons [5]): Strong Inhibitor (strong inhibitors (reducing activity >60%)) |
| CCCOC=O [OLI0063, propyl formate] |  |  |  | 30 | 0 | 0 | Mild Activator (mild activators yield an increase in neuronal activity that is between 20 and 40 spk/sec over baseline neuronal activity) |  | pest or weed control at 100 ppm (larvae; 24 h): 0%; pest or weed control at 0.25 % (larvae; 24 h): 0%; Comp B Class (cpA neurons [3]; Table 9): Mild |
